Our source for the IC50 and inhibition values is ChEMBL document CHEMBL1133015 (J Med Chem, 2000).

The IC50 is the concentration at which inhibition is half-maximal. A higher IC50 goes with weaker potency in that assay. For orientation: inhibition means the percentage by which the read-out fell short of the control.

The target of assay [1] is T1, Substance-K receptor (Homo sapiens, UniProt P21452).
T1 sequence (P21452 whole entry): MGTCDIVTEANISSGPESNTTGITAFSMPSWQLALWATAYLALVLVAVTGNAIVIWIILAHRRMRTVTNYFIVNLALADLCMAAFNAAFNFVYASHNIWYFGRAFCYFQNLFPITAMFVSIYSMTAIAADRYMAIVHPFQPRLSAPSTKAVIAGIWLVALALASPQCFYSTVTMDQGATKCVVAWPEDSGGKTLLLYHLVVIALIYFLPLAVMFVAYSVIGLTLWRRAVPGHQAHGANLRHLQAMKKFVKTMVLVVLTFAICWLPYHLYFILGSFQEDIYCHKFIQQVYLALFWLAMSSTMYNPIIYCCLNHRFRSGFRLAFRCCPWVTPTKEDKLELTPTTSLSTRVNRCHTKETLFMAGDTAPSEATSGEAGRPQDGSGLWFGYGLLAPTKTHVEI
Put plainly: Tested for binding affinity against Tachykinin receptor 2 expressed in CHO cells, using [125]SP as radioligand; NA - did not bind. The format is cell-based.

The target of assay [2] is T2, Substance-P receptor (Homo sapiens, UniProt P25103). Put plainly: Tested for binding affinity against Tachykinin receptor 1 expressed in CHO cells, using [125]SP as radioligand; NA - did not bind. The format is cell-based.
T2 sequence (P25103 whole entry): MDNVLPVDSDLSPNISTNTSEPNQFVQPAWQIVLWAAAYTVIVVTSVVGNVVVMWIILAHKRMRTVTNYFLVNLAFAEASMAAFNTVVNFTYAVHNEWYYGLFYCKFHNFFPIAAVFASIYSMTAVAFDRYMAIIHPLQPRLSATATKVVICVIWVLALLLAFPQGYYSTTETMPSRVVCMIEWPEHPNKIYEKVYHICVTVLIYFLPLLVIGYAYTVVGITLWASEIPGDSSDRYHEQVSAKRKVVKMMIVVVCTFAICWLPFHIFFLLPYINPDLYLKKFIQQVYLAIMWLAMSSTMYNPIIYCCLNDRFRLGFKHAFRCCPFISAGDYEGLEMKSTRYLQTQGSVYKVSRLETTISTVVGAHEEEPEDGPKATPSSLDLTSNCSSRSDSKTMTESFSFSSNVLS
The test system of assay [3] is Substance-P receptor (Homo sapiens), P25103 [Q165A]. As to the kind of experiment: Inhibition against Q165A mutant NK1 receptor expressed in CHO cells, using [125]SP as radioligand at 1 uM. The format is cell-based.
Sequence of Substance-P receptor (Homo sapiens), P25103 [Q165A] (P25103 whole entry Q165A): as the sequence (P25103 whole entry) above, with Q165A counted along it
For assay [4], the target named is T2, Substance-P receptor. As to the kind of experiment: Tested for binding affinity against Tachykinin receptor 1.
The target of assay [5] is T2, Substance-P receptor. Put plainly: Tested for binding affinity against Tachykinin receptor 1 expressed in CHO cells, using [125]SP as radioligand at 1 uM. The format is cell-based.
For assay [6], the target named is Substance-P receptor (Homo sapiens, UniProt P25103, H265A). As to the kind of experiment: Tested for binding affinity against H265A mutant NK1 receptor using [125]SP radioligand in COS cells. The format is cell-based.
Sequence of Substance-P receptor (Homo sapiens, UniProt P25103, H265A) (P25103 whole entry H265A): as the sequence (P25103 whole entry) above, with H265A counted along it
Assay [7] deals with T2, Substance-P receptor. As to the kind of experiment: Tested for binding affinity against Tachykinin receptor 1 expressed in CHO cells, using [125]SP as radioligand. The format is cell-based.
For assay [8], the target named is T1, Substance-K receptor. As to the kind of experiment: Tested for binding affinity against Tachykinin receptor 2 expressed in CHO cells, using [125]SP as radioligand. The format is cell-based.
Assay [9] deals with T2, Substance-P receptor. Put plainly: Tested for binding affinity against human wild type NK1 receptor expressed in CHO cells, using [125]SP as radioligand. The format is cell-based.
Assay [10] addresses Substance-P receptor (Homo sapiens, UniProt P25103, H197A). As to the kind of experiment: Tested for binding affinity against H197A mutant NK1 receptor using [125]SP radioligand in COS cells. The format is cell-based.
Another assay addresses Somatostatin receptor. As to the kind of experiment: Tested for binding affinity against somatostatin receptor on AtT-20 cells. The settings on record: att20. The format is cell-based.
Assay [11] has as its target Somatostatin receptor type 4 (Homo sapiens, UniProt P31391). As to the kind of experiment: Tested for binding affinity against human somatostatin receptor subtype 4 (hSSTR4).
Assay [12] concerns the target Substance-P receptor (Homo sapiens, UniProt P25103, Q165A). Put plainly: Tested for binding affinity against Q165A mutant NK1 receptor expressed in CHO cells, using [125]SP as radioligand. The format is cell-based.

Sequence of Substance-P receptor (Homo sapiens, UniProt P25103, H197A) (P25103 whole entry H197A): as the sequence (P25103 whole entry) above, with H197A counted along it
Sequence of Somatostatin receptor type 4 (P31391 whole entry): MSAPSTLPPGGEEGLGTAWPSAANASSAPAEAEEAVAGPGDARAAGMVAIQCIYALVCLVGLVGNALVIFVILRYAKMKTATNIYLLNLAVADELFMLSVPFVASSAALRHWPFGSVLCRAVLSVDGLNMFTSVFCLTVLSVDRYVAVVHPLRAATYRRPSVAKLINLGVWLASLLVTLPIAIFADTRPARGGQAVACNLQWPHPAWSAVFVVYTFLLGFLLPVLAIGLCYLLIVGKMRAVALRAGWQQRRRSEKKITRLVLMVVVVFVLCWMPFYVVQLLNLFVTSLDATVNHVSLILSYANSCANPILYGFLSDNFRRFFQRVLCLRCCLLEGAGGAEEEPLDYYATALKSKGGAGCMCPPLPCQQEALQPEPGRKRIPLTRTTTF
Sequence of Substance-P receptor (Homo sapiens, UniProt P25103, Q165A) (P25103 whole entry Q165A): as the sequence (P25103 whole entry) above, with Q165A counted along it

Regarding `C[C@H](NC(=O)CN)C(=O)N[C@H]1CSSC[C@H](C(=O)O)NC(=O)[C@H](CO)NC(=O)[C@H]([C@@H](C)O)NC(=O)[C@H](Cc2ccccc2)NC(=O)[C@H]([C@@H](C)O)NC(=O)[C@H](CCCCN)NC(=O)[C@@H](Cc2c[nH]c3ccccc23)NC(=O)[C@H](Cc2ccccc2)NC(=O)[C@H](Cc2ccccc2)NC(=O)[C@H](CC(N)=O)NC(=O)[C@H](CCCCN)NC1=O`, the IC50 entry at Substance-K receptor [1] and at Substance-P receptor [2] was “Not Active” in each case.

In the case of `C[C@@H](O)[C@@H]1NC(=O)[C@H](Cc2ccc(F)cc2)NC(=O)[C@@H](Cc2c[nH]c3ccccc23)NC(=O)[C@H](Cc2ccccc2)NC(=O)[C@H](Cc2ccccc2)NC(=O)[C@H](CC(N)=O)NC(=O)[C@H](CCCCN)NC(=O)[C@@H](N)CSSC[C@H](C(=O)O)NC(=O)[C@H](CO)NC(=O)[C@H]([C@@H](C)O)NC(=O)[C@H](Cc2ccccc2)NC1=O`, in assay [3], the inhibition came out at 37%.

At Substance-P receptor [4], `C[C@@H](O)[C@@H]1NC(=O)[C@H](Cc2ccc(F)cc2)C2C(=O)[C@@H](Cc3c2[nH]c2ccccc32)NC(=O)[C@H](Cc2ccccc2)NC(=O)[C@@H]2CCCC2C(=O)[C@H](Cc2ccccc2)NC1=O` (stereo not given in full) displayed a 50% inhibitory concentration (IC50) of 28 nM.

Take `C[C@H](NC(=O)CN)C(=O)N[C@H]1CSSC[C@H](C(=O)O)NC(=O)[C@H](CO)NC(=O)[C@H]([C@@H](C)O)NC(=O)[C@H](Cc2ccccc2)NC(=O)[C@H]([C@@H](C)O)NC(=O)[C@H](CCCCN)NC(=O)[C@H](Cc2c[nH]c3ccccc23)NC(=O)[C@H](Cc2ccccc2)NC(=O)[C@H](Cc2ccccc2)NC(=O)[C@H](CC(N)=O)NC(=O)[C@H](CCCCN)NC1=O`: on Substance-P receptor [5], the inhibition turned out to be 7%.

For `C[C@H](NC(=O)CN)C(=O)N[C@H]1CSSC[C@@H](C(=O)O)NC(=O)[C@H](CO)NC(=O)[C@H]([C@@H](C)O)NC(=O)[C@H](Cc2ccccc2)NC(=O)[C@H]([C@@H](C)O)NC(=O)[C@H](Cc2ccc(F)cc2)NC(=O)[C@@H](Cc2c[nH]c3ccccc23)NC(=O)[C@H](Cc2ccccc2)NC(=O)[C@H](Cc2ccccc2)NC(=O)[C@H](CC(N)=O)NC(=O)[C@H](CCCCN)NC1=O`, the IC50 worked out at 6.1 µM on Substance-P receptor [6]; 220 nM on Substance-P receptor [7]; 27 nM at Substance-K receptor [8]; 240 nM at Substance-P receptor [9]; 950 nM at Substance-P receptor [10].

`C[C@H](NC(=O)CN)C(=O)N[C@H]1CSSC[C@H](C(=O)O)NC(=O)[C@H](CO)NC(=O)[C@H]([C@@H](C)O)NC(=O)[C@H](Cc2ccccc2)NC(=O)[C@H]([C@@H](C)O)NC(=O)[C@H](Cc2ccc(F)cc2)NC(=O)[C@@H](Cc2c[nH]c3ccccc23)NC(=O)[C@H](Cc2ccccc2)NC(=O)[C@H](Cc2ccccc2)NC(=O)[C@H](CC(N)=O)NC(=O)[C@H](CCCCN)NC1=O` displayed an inhibition in assay [3] of 30%.

Regarding `C[C@@H](O)[C@@H]1NC(=O)[C@H](CCCCN)C2C(=O)[C@@H](Cc3c2[nH]c2ccccc32)NC(=O)[C@H](Cc2ccccc2)NC(=O)[C@@H]2CCCC2C(=O)[C@H](Cc2ccccc2)NC1=O` (stereo not given in full), the IC50 on Somatostatin receptor amounted to 15 µM; in assay [11], 100 nM.

In turn, `NCCCCCOC[C@H]1O[C@@H](OCCc2c[nH]c3ccccc23)[C@H](OCc2ccccc2)[C@@H](OCc2ccccc2)[C@@H]1OCc1ccccc1` registered an IC50 on Substance-P receptor [4] of 120 nM. In other words, the sub-micromolar range.

Compound `C[C@H](NC(=O)CN)C(=O)N[C@H]1CSSC[C@@H](C(=O)O)NC(=O)[C@H](CO)NC(=O)[C@H]([C@@H](C)O)NC(=O)[C@H](Cc2ccccc2)NC(=O)[C@H]([C@@H](C)O)NC(=O)[C@H](CCCCN)NC(=O)[C@H](Cc2c[nH]c3ccccc23)NC(=O)[C@H](Cc2ccccc2)NC(=O)[C@H](Cc2ccccc2)NC(=O)[C@H](CC(N)=O)NC(=O)[C@H](CCCCN)NC1=O` returned an IC50 at Substance-K receptor [8] of 850 nM.

On to `C[C@@H](O)[C@@H]1NC(=O)[C@H](Cc2ccccc2)NC(=O)[C@H]([C@@H](C)O)NC(=O)[C@H](Cc2ccc(F)cc2)NC(=O)[C@@H](Cc2c[nH]c3ccccc23)NC(=O)[C@H](Cc2ccccc2)NC(=O)[C@H](Cc2ccccc2)NC(=O)[C@H](CC(N)=O)NC(=O)[C@H](CCCCN)NC(=O)[C@@H](N)CSSC[C@@H](C(=O)O)NC(=O)[C@H](CO)NC1=O`, for which the IC50 on Substance-P receptor [6] is 9.6 µM; on Substance-P receptor [7], 250 nM; at Substance-K receptor [8], 46 nM; at Substance-P receptor [9], 260 nM; on Substance-P receptor [10], 900 nM.

Consider `C[C@H](NC(=O)CN)C(=O)N[C@H]1CSSC[C@@H](C(=O)O)NC(=O)[C@H](CO)NC(=O)[C@H]([C@@H](C)O)NC(=O)[C@H](Cc2ccccc2)NC(=O)[C@H]([C@@H](C)O)NC(=O)[C@H](Cc2ccc(F)cc2)NC(=O)[C@H](Cc2c[nH]c3ccccc23)NC(=O)[C@H](Cc2ccccc2)NC(=O)[C@H](Cc2ccccc2)NC(=O)[C@H](CC(N)=O)NC(=O)[C@H](CCCCN)NC1=O`, for which the IC50 at Substance-P receptor [6] turned out to be 8.2 µM; on Substance-K receptor [8], 730 nM; on Substance-P receptor [9], 1400 nM; at Substance-P receptor [10], 2700 nM; at Substance-P receptor [12] it was 3.6 µM.
